The text below walks through data of ChEMBL document CHEMBL1201862, “PubChem BioAssay data set” (2004).

“And” between values parts separate entries of the source, which are not always exact repeats. Identical values can stand only once. Counter-ions that a name gives are not always drawn.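 Test compounds were applied to cells in 96-well plates for 48 hours at 5 doses. Abbreviation: GI50, concentration required for 50% inhibition of growth.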 The source made the active and inactive calls. Cut-off read from the data, not from the text of the source: active = GI50 up to about 1.1 µM and inactive = higher.

Test systems include CCRF-CEM; HOP-62; HOP-92; KM12; LOX IMVI; MOLT-4; Malme-3M; NCI-H226; NCI-H23; NCI-H522; OVCAR-4; OVCAR-5; OVCAR-8; RXF 393; SK-MEL-28; SNB-75; SW-620; U-251; SF-539; M19-MEL.
Assay in all cases: NCI tumour cell line growth inhibition, 48 h

Take `O=C1Nc2ccc(S(=O)(=O)N(CCO)CCO)cc2/C1=C1/Nc2ccccc2C1=O`: the GI50 was > 100 µM (inactive) with CCRF-CEM; > 100 µM (inactive) in the assay on HOP-62; > 100 µM (inactive) in the assay on HOP-92; 17.7 µM (inactive) with KM12; > 100 µM (inactive) with LOX IMVI; 62.4 µM (inactive) in the assay with MOLT-4. The GI50 with Malme-3M was > 100 µM (inactive); in the assay on NCI-H226 it was > 100 µM (inactive); in the assay with NCI-H23, > 100 µM (inactive); with NCI-H522 it was > 100 µM (inactive); in the assay with OVCAR-4, 48 µM (inactive); with OVCAR-5, > 100 µM (inactive). In addition, the GI50 in the assay on OVCAR-8 is > 100 µM (inactive); in the assay on RXF 393, 1.56 µM (inactive); in the assay with SK-MEL-28 it was > 100 µM (inactive); with SNB-75, 2.82 µM (inactive); in the assay on SW-620 it was > 100 µM (inactive); with U-251 it was 96.6 µM (inactive).
Consider `O=C1C[C@H](c2ccccc2)C2(C(=O)c3ccccc3C2=O)[C@@H](c2ccccc2)C1`, for which the GI50 with CCRF-CEM was 9.55 µM (inactive); in the assay on HOP-62, 38.5 µM (inactive); in the assay with HOP-92 it was 13.6 µM (inactive); in the assay on KM12 it was > 10 µM (inactive); in the assay with MOLT-4 it was 8.87 µM (inactive); in the assay on Malme-3M, 36.7 µM (inactive). Also, the GI50 with NCI-H226 is 24.9 µM (inactive); in the assay with NCI-H23, 32.5 µM (inactive); in the assay with NCI-H522, 30.2 µM (inactive); with OVCAR-4, 14.4 µM (inactive); in the assay on OVCAR-5, 42.2 µM (inactive); in the assay with OVCAR-8 it was 35.6 µM (inactive). In addition, the GI50 was 6.04 µM (inactive) in the assay with RXF 393, 19 µM (inactive) in the assay with SK-MEL-28, 28.4 µM (inactive) in the assay with SNB-75 and 31.5 µM (inactive) in the assay with U-251.
For the compound `CC1OC(OC2C(OC(=O)[C@@H]3CC(C)(C)C[C@H]4C5=CC[C@@H]6[C@@]7(C)C[C@H](O)[C@H](OC8OC(CO)C(O)C(O)C8O)[C@@](C)(CO)[C@@H]7[C@H](O)C[C@@]6(C)[C@]5(C)CC[C@@]34C)OCC(O)C2O)C(O)C(O)C1O` (stereo partly drawn), the GI50 in the assay with CCRF-CEM, in the assay with HOP-62, in the assay on HOP-92, in the assay on KM12, with LOX IMVI and in the assay with MOLT-4 was > 7.5 µM (inactive) throughout. The GI50 in the assay on Malme-3M, in the assay with NCI-H226, in the assay with NCI-H23, with NCI-H522, with OVCAR-4 and with OVCAR-5 was > 7.5 µM (inactive) in each case. Further, the GI50 in the assay on OVCAR-8, with RXF 393, in the assay with SF-539, in the assay on SNB-75, in the assay on SW-620 and with U-251 was > 7.5 µM (inactive) each time.
For `CN(C)CCN(/C(=N/c1ccccc1)N1CCCC1)c1ccccc1`, the GI50 is 8.69 µM (inactive) in the assay with CCRF-CEM; 23.4 µM (inactive) in the assay on HOP-62; 96.8 µM (inactive) in the assay on HOP-92; 20 µM (inactive) in the assay with KM12; 4.06 µM (inactive) in the assay with LOX IMVI; 4.92 µM (inactive) in the assay on MOLT-4. For the same compound, the GI50 with Malme-3M was > 100 µM (inactive); in the assay on NCI-H226 it was 75.9 µM (inactive); in the assay with NCI-H23 it was 31 µM (inactive); in the assay with NCI-H522, 16.5 µM (inactive); in the assay on OVCAR-4 it was 49.5 µM (inactive); with OVCAR-5, > 100 µM (inactive). Further, the GI50 with OVCAR-8 was 68.7 µM (inactive); with SK-MEL-28, > 100 µM (inactive); in the assay on SNB-75 it was 49 µM (inactive); in the assay with SW-620 it was 31.7 µM (inactive); in the assay with U-251, 68.5 µM (inactive).
Take `NC(=O)Nc1cc(O)ccc1/N=N/c1ccc(S(=O)(=O)Nc2ccccn2)cc1`: the GI50 with CCRF-CEM, with HOP-62, with HOP-92, in the assay on KM12, with LOX IMVI and in the assay with M19-MEL was > 100 µM (inactive) each time. The GI50 with MOLT-4 was 5.9 µM (inactive); with Malme-3M, > 100 µM (inactive); in the assay on NCI-H23, > 100 µM (inactive); in the assay on NCI-H522 it was > 100 µM (inactive); in the assay on OVCAR-4, > 100 µM (inactive); in the assay on OVCAR-5 it was > 100 µM (inactive). Besides, the GI50 in the assay on OVCAR-8, with SF-539, in the assay with SK-MEL-28, in the assay with SNB-75, in the assay on SW-620 and in the assay on U-251 was > 100 µM (inactive) throughout.
For the compound `Nc1c(Cl)c([N+](=O)[O-])cc2c1OCCCCO2`, the GI50 in the assay with CCRF-CEM is 79.6 µM (inactive); with HOP-62 it was > 100 µM (inactive); with HOP-92, 38.4 µM (inactive); in the assay with KM12, > 100 µM (inactive); with LOX IMVI it was 61.4 µM (inactive); in the assay with MOLT-4, > 100 µM (inactive). The GI50 in the assay on Malme-3M was > 100 µM (inactive); with NCI-H226, 72.3 µM (inactive); with NCI-H23, > 100 µM (inactive); in the assay with NCI-H522, 2.32 µM (inactive); with OVCAR-4 it was > 100 µM (inactive); in the assay with OVCAR-5, > 100 µM (inactive). Besides, the GI50 in the assay with OVCAR-8 is > 100 µM (inactive); in the assay on RXF 393, > 100 µM (inactive); in the assay on SF-539 it was > 100 µM (inactive); in the assay on SK-MEL-28, > 100 µM (inactive); in the assay on SNB-75, 23.8 µM (inactive); in the assay with SW-620, > 100 µM (inactive). Also, the GI50 in the assay with U-251 was 3.9 µM (inactive).
As for `O=C1/C(=C/c2ccc(Cl)cc2)CNC/C1=C\c1ccc(Cl)cc1`, the GI50 in the assay on HOP-62 was 2.43 µM (inactive); in the assay on KM12, 1.22 µM (inactive); in the assay on LOX IMVI, 1.57 µM (inactive); in the assay with MOLT-4, 3.72 µM (inactive); in the assay on Malme-3M, 6.08 µM (inactive); in the assay with NCI-H226, 2.44 µM (inactive). The GI50 is 1.89 µM (inactive) in the assay on NCI-H23; 1.92 µM (inactive) with NCI-H522; 4.79 µM (inactive) in the assay on OVCAR-5; 2.04 µM (inactive) in the assay on OVCAR-8; 1.15 µM (inactive) in the assay with SF-539; 1.5 µM (inactive) in the assay with SK-MEL-28. Besides, the GI50 in the assay on SNB-75 was 4.36 µM (inactive); in the assay with SW-620, 0.638 µM (active); with U-251, 0.782 µM (active).
Take `Nc1ccc2cc3ccc(N)cc3nc2c1` [PROFLAVINE SULFATE]: the GI50 in the assay with CCRF-CEM is 508 nM (active) and 601 nM (active); in the assay with HOP-62, 2.47 µM (inactive) and 2.21 µM (inactive); in the assay with HOP-92, 1.45 µM (inactive) and 2.49 µM (inactive); in the assay with LOX IMVI, 789 nM (active) and 764 nM (active); in the assay with M19-MEL, 1.79 µM (inactive); in the assay with MOLT-4 it was 338 nM (active) and 284 nM (active). Besides, the GI50 with OVCAR-5 is 3.05 µM (inactive); with OVCAR-8, 1.09 µM (active) and 995 nM (active); with SF-539 it was 1.26 µM (inactive) and 1.16 µM (inactive); in the assay on SK-MEL-28 it was 2.45 µM (inactive) and 1.88 µM (inactive); with SNB-75, 1.59 µM (inactive) and 1.16 µM (inactive); in the assay on SW-620, 494 nM (active) and 397 nM (active).
